Results on 1 substance are retold here after patent publication US7964558B2, “Therapeutic applications for C-peptide” (La Jolla, priority 2003, dated 2011).

For one data set, the system named is Na+K+ATPase. In words: Na+K+ATPase activity in the sciatic nerve of diabetic BB/Wor rats. In kind it is in vivo, rat. The note with it: once daily dose 75 nmol/kg, 8 weeks, sciatic nerve (FIG. 4). As for the experimental part: (§1) Prediabetic male BB/Wor rats were used. Ten rats were used in each group, where the animals were closely age-matched. They were maintained in metabolic cages with free access to water and rat chow. Bodyweight, urine volume and glucosuria were monitored daily to ascertain onset of diabetes. Immediately after the onset of diabetes, administration of C-peptides was commenced in either a single dose/24 hours, three doses/24 hours or as a continuous infusion by osmopump.
(§2) The single dose given was 75 nmol/kg and the three doses given were each 25 nmol/kg. The continuous infusion gave a dose of 75 nmol/kg over a 24 hour period.
(§3) Synthetic rat C-peptide II with a purity of more than 98% by HPLC was used (Genosys, Cambridge, UK) dissolved in saline (12 mg/ml). Control rats were given a dose of saline instead of C-peptide. […]
For Na^+/K^+-ATPase activity, nerve samples were homogenized in 2 ml of 0.2 mol/l sucrose and 0.02 mol/l TRIS-HCl at pH 7.5. […] Na^+/K^+-ATPase activity was defined as the difference before and after ouabain and was expressed as μmol ADP formed per gram of wet weight per hour.
(§4) Statistical analysis. The results are presented as means±SE and the significance of differences was calculated by analysis of variance (ANOVA). Group differences were assessed by post hoc analysis using the Student-Newman-Keul test. […]

The conditions of data set [1]: dose injected into a rat; expected; cited from earlier work.
The conditions of data set [2]: in humans; cited from earlier work.
The subject of data set [3] is diabetic BB/Wor rats. Kind of data set: Morphometric and teased fibre assessment of sural nerve in diabetic BB/Wor rats. The format is in vivo, rat. To be noted: once daily dose 75 nmol/kg, 8 weeks, compared to diabetic rats (FIG. 5). The procedure:
as §1, §2, §3
Teased fibre examinations. A mean of 168±4 myelinated fibres were teased from each sural nerve and scored for specific changes. […] Changes were expressed as percentages of total fibres.
as §4

Data set [4] concerns diabetic BB/Wor rats. In words: Nerve conduction velocity in motor and sensory (sciatic-tibial) nerves of diabetic BB/Wor rats. In kind it is in vivo, rat. The procedure: Further technical details can be found in Sima et al., Diabetologia (2001) 44: 889-897.
as §1, §2
Synthetic rat C-peptide II with a purity of more than 98% by HPLC was used (Genosys, Cambridge, UK) dissolved in saline (12 mg/ml). Control rats were given a dose of saline instead of C-peptide.
The nerve conduction velocity in motor and sensory nerves and Na^+K^+ATPase levels in the rats were measured. Baseline nerve conduction velocity was measured within 24 hours of onset of diabetes. […]
as §4

“C-peptide: Synthetic rat C-peptide II, purity more than 98% by HPLC (Genosys), dissolved in saline; used in Example 1 (EVEDPQVGQVELGAGPGAGSEQTLALEVARQ; Ins Rodent C-peptide)”: the “Na+K+ATPase activity” value with Na+K+ATPase is “clearly and sufficiently improved”. For the same substance, the “time to disappear entirely from circulation” value in data set [1] is 2 to 3 h. Besides, the half-life entry in data set [2] was “approximately 30 minutes”. Moreover, the “morphology of cells (morphometric data)” value in the data set on diabetic BB/Wor rats [3] is reported as “improved morphology”. For the same substance, the “effectiveness of once daily dose compared with other dosing regimens” value in the data set with diabetic BB/Wor rats [4] (nerve conduction velocity and Na+K+ATPase activity, 75 nmol/kg once daily vs 3 x 25 nmol/kg daily or 75 nmol/kg/24 h continuous infusion by osmopump) was “as effective as three daily dose or a continuous infusion”. The nerve conduction velocity result in the data set with diabetic BB/Wor rats [4] (once daily dose 75 nmol/kg, 8 weeks, diabetic BB/Wor rats, motor and sensory nerves (FIGS. 2, 3)) is “clearly and sufficiently improved”.
